From patent US7745446B2, “Pyrazolo[1,5-c]pyrimidines” (Bayer Schering Pharma Aktiengesellschaft, priority 2004, dated 2010)

Tests used:
MDA-MB-468 cells = test: Cellular proliferation/cytotoxicity assay (Alamar Blue), MDA-MB-468; conditions: Homo sapiens, MDA-MB-468, 48 h, read-out: Anti-proliferative/cytotoxic activity: IC50 MDA468
Protocol: (§1) The anti-proliferative activity of the compounds as described herein, is evaluated using MCF7 and MDA-MB-468 (ATCC HTB-22 and HTB-132) cell lines and the Alamar Blue (Resazurin) cell viability assay (O'Brien et al. Eur J Biochem 267, 5421-5426, 2000). Resazurin is reduced to the fluorescent resorufin by cellular dehydrogenase activity, correlating with viable, proliferating cells. Test compounds are dissolved as 10 mM solutions in DMSO and subsequently diluted. MCF7 or MDA-MB-434 cells were seeded into 96 well flat bottom plates at a density of 10000 cells/well (MCF7) or 5000 cells/well (MDA-MB-468) in a volume of 200 μl/well. 24 hours after seeding, 1 μl each of the compound dilutions are added into each well of the 96 well plates. Each compound dilution is tested as at least as duplicates. Wells containing untreated control cells were filled with 200 μl DMEM containing 0.5% v:v DMSO. The cells are then incubated with the substances for 48 hours at 37° C. in a humidified atmosphere containing 5% carbon dioxide. To determine cell viability, 20 μl of a Resazurin solution (Sigma; 90 mg/l) are added. After 4 hours incubation at 37° C. the fluorescence is measured at an extinction of 544 nm and an emission of 590 nm (Wallac Victor2; Perkin Elmer, USA). For the calculation of the cell viability the emission value from untreated cells is set as 100% viability and the emission rates of treated cells are set in relation to the values of untreated cells. Viabilities are expressed as % values. The corresponding IC50 values of the compounds for cytotoxic activity are determined from the concentration-effect curves by means of non-linear regression. The analysis of the data is performed using a biostatistical program (GraphPad Prism, USA).

GST-ΔPH-Akt1 = target: T1, GST-ΔPH-Akt1 (Homo sapiens, UniProt P31749); test: Biochemical ΔPH Akt1 assay (flashplate, 33P incorporation into histone 2B); conditions: 100 nM ATP, histone 2B substrate; read-out: ΔPHAkt1 inhibition: IC50
T1 construct: named GST-deltaPH-Akt1; 107-480aa; cloned in the pAcGl vector; GST (N); made in house; host or cells: SF9 insect cells (baculovirus vector pAcG1), co-expressed with PDK1
T1 sequence (P31749 107-480, stated change not applied): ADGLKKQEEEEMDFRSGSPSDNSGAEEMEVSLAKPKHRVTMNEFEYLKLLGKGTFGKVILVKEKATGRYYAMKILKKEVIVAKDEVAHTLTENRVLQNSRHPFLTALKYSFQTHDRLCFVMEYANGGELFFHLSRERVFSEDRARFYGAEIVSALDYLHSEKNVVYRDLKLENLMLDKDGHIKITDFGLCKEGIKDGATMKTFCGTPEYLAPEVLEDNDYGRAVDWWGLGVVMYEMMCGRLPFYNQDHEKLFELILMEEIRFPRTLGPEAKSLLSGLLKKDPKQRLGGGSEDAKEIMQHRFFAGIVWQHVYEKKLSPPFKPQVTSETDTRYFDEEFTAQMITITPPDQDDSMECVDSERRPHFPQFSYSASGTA
Description: For the biochemical assay ΔPHAkt1 is used devoid of its PH domain as a GST fusion protein (named GST-deltaPH-Akt1; 107-480aa; cloned in the pAcGl vector (BD Biosciences Pharmingen)), co-expressed with PDK1 in SF9 insect cells. The protein is purified using glutathion-affinity chromatography by standard protocols.
In order to study the inhibition of Akt according to the invention, a flashplate-based assay has been developed.
The Akt1 assay is a biochemical assay using Akt1 devoid of its PH domain and co-expressed with PDK1 in insect cells. The GST-ΔPH-Akt1 assay is run in 96 well plates by incubating 100 ng/well GST-ΔPH-Akt1, 100 ng/well histone 2B (Roche, #223514) as substrate, 10 μl of compound of invention (test compounds were dissolved as 10 mM solutions in dimethylsulfoxide (DMSO) and subsequently diluted) and 100 nM ATP (including ^33P-ATP) in 100 μl of reaction buffer ([…], pH7,5; 3 mM MgCl2; 3 mM MnCl2; 3 μM Na-Orthovanadat; 1 mM DTT; 1 μg/ml PEG8000) for 80 minutes at 30° C. The reactions are terminated by adding 100 μl stopping buffer (2% H3PO4 for 5 minutes) and are washed 3 times by using washing buffer (0.9% NaCl). Relying on the incorporation of ^33P into the protein substrate histone 2B, the detection is based on the adhesion of the phosphorylated protein to the surface of scintillator-coated flash plates (NEN, USA; #SMP-200). This phosphorylation is measured by counting the plate for 60 sec. using a plate reader (Wallac Microbeta; Perkin Elmer, USA).

MCF7 cells = test: Cellular proliferation/cytotoxicity assay (Alamar Blue), MCF7; conditions: Homo sapiens, MCF7, 48 h, read-out: Anti-proliferative/cytotoxic activity: IC50 MCF7
Protocol: as §1

PKA = target: T2, PKA (Homo sapiens, UniProt P17612); test: Biochemical PKA assay (flashplate); conditions: 100 nM ATP; read-out: PKA inhibition: −log IC50 (converted)
T2 construct: His; purchased PanVera, USA #R3791; host or cells: E. coli
Protocol: For the biochemical PKA assay the catalytic subunit of PKA is expressed in E. coli as a His-tagged human recombinant protein and purified accordingly (PanVera, USA; #R3791).
In order to study the kinase inhibition activity of the compounds according to the invention, a flashplate-based assay has been developed for the serine/threonine kinase, PKA. The assay is run in 96 well plates by incubating 1 ng/well His-PKA (PanVera, USA; #R3791), 0.5 μM/well PKA peptide (#12-394; Upstate, USA) as substrate, 10 μl of compound of invention (test compounds were dissolved as 10 mM solutions in dimethylsulfoxide (DMSO) and subsequently diluted) and 100 nM ATP (including ^33P-ATP) in 100 μl of reaction buffer ([…], pH7,5; 3 mM MgCl2; 3 mM MnCl2; 3 μM Na-Orthovanadat; 1 mM DTT) for 80 minutes at 22° C. The reactions are stopped by adding 100 μl stopping buffer (2% H3PO4 for 5 minutes) and are washed 3 times by using washing buffer (200 μl 1×PBS). Relying on the incorporation of ^33P into the peptide substrate, the detection is based on the adhesion of the phosphorylated peptide to the surface of scintillator-coated Flash plates (Perkin Elmer, USA; #SMP-103). This phosphorylation is measured by counting the plate for 60 sec. using a plate reader (Wallac Microbeta; Perkin Elmer, USA). By using this method the IC50 of the PKA inhibition is determined.

Row | IC50 (GST-ΔPH-Akt1) [nM] | IC50 (PKA) [µM] | Structure (SMILES) | IC50 (MDA-MB-468 cells) [µM] | IC50 (MCF7 cells) [µM]
1 | ≤ 1750 | > 100 | NCc1ccnc(C(=O)Nc2ccc(Nc3nc(-c4cccc5c4oc4ccccc45)cc4ccnn34)cc2)c1 [Example 53, 4-Aminomethyl-pyridine-2-carboxylic acid [4-(5-dibenzofuran-4-yl-pyrazolo[1,5-c]pyrimidin-7-ylamino)-phenyl]-amide] | ≤ 13.6 | ≤ 16.9
2 | ≤ 1750 | > 100 | CCOc1ccc2cc(-c3cc4ccnn4c(Nc4ccc(NC(=O)c5ccc(CN)cc5)cc4)n3)ccc2c1 [Example 46, 4-Aminomethyl-N-{4-[5-(6-ethoxy-naphthalen-2-yl)-pyrazolo[1,5-c]pyrimidin-7-ylamino]-phenyl}-benzamide] | ≤ 13.6 | ≤ 16.9
3 | ≤ 1750 | > 100 | NCc1cncc(C(=O)Nc2ccc(Nc3nc(-c4cccc5c4oc4ccccc45)cc4ccnn34)cc2)c1 [Example 52, 5-Aminomethyl-N-[4-(5-dibenzofuran-4-yl-pyrazolo[1,5-c]pyrimidin-7-ylamino)-phenyl]-nicotinamide] | ≤ 13.6 | ≤ 16.9
4 | ≤ 1750 | 6.31 to 100 | CC(C)(N)c1ccc(C(=O)Nc2ccc(Nc3nc(-c4cccc5c4oc4ccccc45)cc4ccnn34)cc2)cc1 [Example 39, 4-(1-Amino-1-methyl-ethyl)-N-[4-(5-dibenzofuran-4-yl-pyrazolo[1,5-c]pyrimidin-7-ylamino)-phenyl]-benzamide] | ≤ 13.6 | ≤ 16.9
5 | ≤ 1750 | > 100 | NCc1ccc(C(=O)Nc2ccc(Nc3nc(-c4ccc5cc(OCc6ccccc6)ccc5c4)cc4ccnn34)cc2)cc1 [Example 42, 4-Aminomethyl-N-{4-[5-(6-benzyloxy-naphthalen-2-yl)-pyrazolo[1,5-c]pyrimidin-7-ylamino]-phenyl}-benzamide] | ≤ 13.6 | ≤ 16.9
6 | ≤ 1750 | 6.31 to 100 | NCCC(C(=O)Nc1ccc(Nc2nc(-c3cccc4c3oc3ccccc34)cc3ccnn23)cc1)c1ccc(Cl)c(Cl)c1 (racemic) [Example 43, rac-4-Amino-N-[4-(5-dibenzofuran-4-yl-pyrazolo[1,5-c]pyrimidin-7-ylamino)-phenyl]-2-(3,4-dichloro-phenyl)-butyramide] | ≤ 13.6 | ≤ 16.9
7 | ≤ 1750 | > 100 | NCc1cccc(C(=O)Nc2ccc(Nc3nc(-c4cccc5c4oc4ccccc45)cc4ccnn34)cc2)n1 [Example 51, 6-Aminomethyl-pyridine-2-carboxylic acid [4-(5-dibenzofuran-4-yl-pyrazolo[1,5-c]pyrimidin-7-ylamino)-phenyl]-amide] |  | 
8 | ≤ 1750 | 6.31 to 100 | NCc1ccc(C(=O)Nc2ccc(Nc3nc(-c4ccc(-c5ccccc5)nc4)cc4ccnn34)cc2)cc1 [Example 54, 4-Aminomethyl-N-{4-[5-(6-phenyl-pyridin-3-yl)-pyrazolo[1,5-c]pyrimidin-7-ylamino]-phenyl}-benzamide] |  | 
9 | ≤ 1750 | > 100 | O=C(Nc1ccc(Nc2nc(-c3cccc4c3oc3ccccc34)cc3ccnn23)cc1)c1ccc(CNCCO)cc1 [Example 57, N-[4-(5-Dibenzofuran-4-yl-pyrazolo[1,5-c]pyrimidin-7-ylamino)-phenyl]-4-[(2-hydroxy-ethylamino)-methyl]-benzamide] | ≤ 13.6 | ≤ 16.9
10 | ≤ 1750 | 6.31 to 100 | CC(=O)Nc1cccc(-c2ccc(-c3cc4ccnn4c(Nc4ccc(NC(=O)c5ccc(CN)cc5)cc4)n3)cc2)c1 [Example 60, N-{4-[5-(3′-Acetylamino-biphenyl-4-yl)-pyrazolo[1,5-c]pyrimidin-7-ylamino]-phenyl}-4-aminomethyl-benzamide] |  | 
11 | ≤ 1750 | 6.31 to 100 | NCc1ccc(C(=O)Nc2ccc(Nc3nc(-c4ccc(-c5ccccc5F)cc4)cc4ccnn34)cc2)cc1 [Example 69, 4-Aminomethyl-N-{4-[5-(2′-fluoro-biphenyl-4-yl)-pyrazolo[1,5-c]pyrimidin-7-ylamino]-phenyl}-benzamide] | ≤ 13.6 | ≤ 16.9
12 | ≤ 1750 | 6.31 to 100 | CC(C)(N)c1ccc(C(=O)Nc2cccc(Nc3nc(-c4cccc5c4oc4ccccc45)cc4ccnn34)c2)cc1 [Example 40, 4-(1-Amino-1-methyl-ethyl)-N-[3-(5-dibenzofuran-4-yl-pyrazolo[1,5-c]pyrimidin-7-ylamino)-phenyl]-benzamide] |  | 
13 | ≤ 1750 | > 100 | NCc1ccc(C(=O)Nc2ccc(Nc3nc(-c4cccc5c4oc4ccccc45)cc4ccnn34)cc2)c(F)c1 [Example 28, 4-Aminomethyl-N-[4-(5-dibenzofuran-4-yl-pyrazolo[1,5-c]pyrimidin-7-ylamino)-phenyl]-2-fluoro-benzamide] | ≤ 13.6 | ≤ 16.9
14 | ≤ 1750 |  | NCCc1ccc(C(=O)Nc2ccc(Nc3nc(-c4ccc(-c5cccc([N+](=O)[O-])c5)cc4)cc4ccnn34)cc2)cc1 [Example 81, 4-(2-Amino-ethyl)-N-{4-[5-(3′-nitro-biphenyl-4yl)-pyrazolo[1,5-c]pyrimidin-7-ylamino]-phenyl}-benzamide] | ≤ 13.6 | ≤ 16.9
15 | ≤ 1750 |  | NCc1cccc(C(=O)Nc2ccc(Nc3nc(-c4cccc5c4oc4ccccc45)cc4ccnn34)cc2)c1 [Example 20, 3-Aminomethyl-N-[4-(5-dibenzofuran-4-yl-pyrazolo[1,5-c]pyrimidin-7-ylamino)-phenyl]-benzamide] | ≤ 13.6 | ≤ 16.9
16 | ≤ 1750 |  | NCc1ccc(C(=O)Nc2cccc(Nc3nc(-c4cccc5c4oc4ccccc45)cc4ccnn34)c2)cc1 [Example 17, 4-Aminomethyl-N-[3-(5-dibenzofuran-4-yl-pyrazolo[1,5-c]pyrimidin-7-ylamino)-phenyl]-benzamide] | ≤ 13.6 | ≤ 16.9
17 | ≤ 1750 | > 100 | NCc1cc(C(=O)Nc2ccc(Nc3nc(-c4cccc5c4oc4ccccc45)cc4ccnn34)cc2)ccn1 [Example 30, 2-Aminomethyl-N-[4-(5-dibenzofuran-4-yl-pyrazolo[1,5-c]pyrimidin-7-ylamino)-phenyl]-isonicotinamide] |  | 
18 | ≤ 1750 |  | COc1ccc2cc(-c3cc4ccnn4c(Nc4ccc(NC(=O)c5ccc(CN)cc5)cc4)n3)ccc2c1 [Example 45, 4-Aminomethyl-N-{4-[5-(6-methoxy-naphthalen-2-yl)-pyrazolo[1,5-c]pyrimidin-7-ylamino]-phenyl}-benzamide] | ≤ 13.6 | ≤ 16.9
19 | ≤ 1750 | > 100 | N=C(N)Nc1ccc(C(=O)Nc2ccc(Nc3nc(-c4cccc5c4oc4ccccc45)cc4ccnn34)cc2)cc1 [Example 48, N-[4-(5-Dibenzofuran-4-yl-pyrazolo[1,5-c]pyrimidin-7-ylamino)-phenyl]-4-guanidino-benzamide] |  | 
20 | ≤ 1750 |  | COc1cccc(-c2ccc(-c3cc4ccnn4c(Nc4ccc(NC(=O)c5ccc(CCN)cc5)cc4)n3)cc2)c1 [Example 78, 4-(2-Amino-ethyl)-N-{4-[5-(3′-methoxy-biphenyl-4-yl)-pyrazolo[1,5-c]pyrimidin-7-ylamino]-phenyl}-benzamide] | ≤ 13.6 | ≤ 16.9
